Data reported in patent US10294202B2, “Pyrrolidinones as herbicides” (FMC Corporation, priority 2013, dated 2019).

Tests used:
barnyardgrass [1] = test: Test A pre-/postemergence herbicide test; assay type: in vivo, Echinochloa crus-galli
In short: (§1)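 Greenhouse pot test with pre- and postemergence application of surfactant-containing solvent formulations. Postemergence plants were 2–10 cm, one- to two-leaf stage. Response scored visually after ~10 days, 0 (no effect) to 100 (complete control).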

kochia = test: Test A pre-/postemergence herbicide test; assay type: in vivo, Kochia scoparia
In short: as §1

ragweed = test: Test A pre-/postemergence herbicide test; assay type: in vivo, Ambrosia elatior
In short: as §1

ryegrass, Italian = test: Test A pre-/postemergence herbicide test; assay type: in vivo, Lolium multiflorum
In short: as §1

giant foxtail = test: Test A pre-/postemergence herbicide test; assay type: in vivo, Setaria faberii
In short: as §1

pigweed = test: Test A pre-/postemergence herbicide test; assay type: in vivo, Amaranthus retroflexus
In short: as §1

wheat = test: Test A pre-/postemergence herbicide test; assay type: in vivo, Triticum aestivum; details: Postemergence
In short: as §1

corn = test: Test A pre-/postemergence herbicide test; assay type: in vivo, Zea mays; details: Postemergence
In short: as §1

blackgrass = test: Test A postemergence herbicide test; assay type: in vivo, Alopecurus myosuroides
In short: (§2)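 Ratings compare treated with untreated plants roughly 10 days after a postemergence application made at the one- to two-leaf stage. Scoring uses 0–100, where 0 means no effect and 100 complete control.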

galium = test: Test A postemergence herbicide test; assay type: in vivo, Galium aparine
In short: as §2

rice = test: Test B flooded paddy test; assay type: in vivo, Oryza sativa; details: 500 g ai/ha, Flood; scale of 0 to 100 where 0 is no effect and 100 is complete control
In short: (§3)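 Scoring: visual, compared with untreated controls, 0 = no effect through 100 = complete control, taken 13 to 15 days after treatment in the greenhouse. Compounds had been added to paddy water over soil flooded 3 cm deep at the plants' 2-leaf stage.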

sedge, umbrella = test: Test B flooded paddy test; assay type: in vivo, Cyperus difformis; details: 500 g ai/ha, Flood; scale of 0 to 100 where 0 is no effect and 100 is complete control
In short: as §3

ducksalad = test: Test B flooded paddy test; assay type: in vivo, Heteranthera limosa; details: 500 g ai/ha, Flood; scale of 0 to 100 where 0 is no effect and 100 is complete control
In short: as §3

barnyardgrass [2] = test: Test B flooded paddy test; assay type: in vivo, Echinochloa crus-galli; details: 500 g ai/ha, Flood; scale of 0 to 100 where 0 is no effect and 100 is complete control
In short: as §3

[3] = Postemergence, 125 g ai/ha, visual rating on 0 to 100 scale (0 no effect, 100 complete control), approx. 10 days
[4] = Postemergence, 500 g ai/ha, 0 to 100 scale (0 no effect, 100 complete control)
[5] = Preemergence, 125 g ai/ha, 0 to 100 scale where 0 is no effect and 100 is complete control
[6] = Preemergence, 500 g ai/ha, visual rating on 0 to 100 scale (0 no effect, 100 complete control)
[7] = 125 g ai/ha, visual rating on 0 to 100 scale (0 no effect, 100 complete control), approx. 10 days
[8] = 500 g ai/ha, 0 to 100 scale (0 no effect, 100 complete control)
[9] = 125 g ai/ha, visual rating, 0 to 100 scale, 0 no effect, 100 complete control, approximately 10 days, preemergence
[10] = Postemergence, 125 g ai/ha, 0 to 100 scale, 0 no effect, 100 complete control
[11] = preemergence, 500 g ai/ha, 0 to 100 scale
[12] = 125 g ai/ha, 0 to 100 scale, 0 no effect, 100 complete control

SMILES: O=C1NCC(c2cccc(Oc3ccccc3)c2)C1C(=O)Nc1ccc(F)c(F)c1F (stereo not drawn) [Compound 333]
- Plant response rating, Barnyardgrass (barnyardgrass [1]; [3]): 20
- Plant response rating, Barnyardgrass (barnyardgrass [1]; [4]): 60
- Plant response rating, Barnyardgrass (barnyardgrass [1]; [5]): 50
- Barnyardgrass plant response rating (barnyardgrass [1]; [6]): 90
- Plant response rating, Kochia (kochia; [3]): 0
- Plant response rating, Kochia (kochia; [4]): 20
- Plant response rating, Kochia (kochia; [5]): 0
- Kochia plant response rating (kochia; [6]): 0
- Plant response rating, Ragweed (ragweed; [3]): 0
- Plant response rating, Ragweed (ragweed; [4]): 20
- Plant response rating, Ragweed (ragweed; [5]): 0
- Ragweed plant response rating (ragweed; [6]): 0
- Plant response rating, Ryegrass, Italian (ryegrass, Italian; [3]): 0
- Plant response rating, Ryegrass, Italian (ryegrass, Italian; [4]): 30
- Plant response rating, Ryegrass, Italian (ryegrass, Italian; [5]): 0
- Ryegrass, Italian plant response rating (ryegrass, Italian; [6]): 20
- Plant response rating, Foxtail, Giant (giant foxtail; [3]): 50
- Plant response rating, Foxtail, Giant (giant foxtail; [4]): 80
- Plant response rating, Foxtail, Giant (giant foxtail; [5]): 80
- Foxtail, Giant plant response rating (giant foxtail; [6]): 90
- Plant response rating, Pigweed (pigweed; [3]): 0
- Plant response rating, Pigweed (pigweed; [4]): 20
- Plant response rating, Pigweed (pigweed; [5]): 0
- Pigweed plant response rating (pigweed; [6]): 0
- Plant response rating, Wheat (wheat; [7]): 0
- Plant response rating, Wheat (wheat; [8]): 20
- Plant response rating, Corn (corn; [7]): 0
- Plant response rating, Corn (corn; [8]): 20
- Plant response rating, Blackgrass (blackgrass; [7]): 0
- Plant response rating, Blackgrass (blackgrass; [8]): 30
- Plant response rating, Galium (galium; [7]): 0
- Plant response rating, Galium (galium; [8]): 40
- Plant response rating, Rice (rice): 0
- Plant response rating, Sedge, Umbrella (sedge, umbrella): 0
- Plant response rating, Ducksalad (ducksalad): 20
- Plant response rating, Barnyardgrass (barnyardgrass [2]): 0

SMILES: O=C1NCC(c2cccc(OC(F)(F)C(F)F)c2)C1C(=O)Nc1ccccc1F (racemic) [Compound 121]
- Plant response rating, Barnyardgrass (barnyardgrass [1]; [9]): 80
- Plant response rating, Barnyardgrass (barnyardgrass [1]; [10]): 70
- Plant response rating, Barnyardgrass (barnyardgrass [1]; [4]): 80
- Plant response rating, Barnyardgrass (barnyardgrass [1]; preemergence, 500 g ai/ha, 0 to 100 scale (0 no effect, 100 complete control)): 90
- Plant response rating, Kochia (kochia; [9]): 60
- Plant response rating, Kochia (kochia; [10]): 50
- Kochia plant response rating (0 to 100 scale, 0 is no effect, 100 is complete control) (kochia; Postemergence, 500 g ai/ha): 60
- Plant response rating, Kochia (kochia; [11]): 70
- Plant response rating, Ragweed (ragweed; [9]): 70
- Plant response rating, Ragweed (ragweed; [10]): 0
- Ragweed plant response rating (0 to 100 scale, 0 is no effect, 100 is complete control) (ragweed; Postemergence, 500 g ai/ha): 30
- Plant response rating, Ragweed (ragweed; [11]): 70
- Plant response rating, Ryegrass, Italian (ryegrass, Italian; [9]): 0
- Plant response rating, Ryegrass, Italian (ryegrass, Italian; [10]): 40
- Ryegrass, Italian plant response rating (0 to 100 scale, 0 is no effect, 100 is complete control) (ryegrass, Italian; Postemergence, 500 g ai/ha): 50
- Plant response rating, Ryegrass, Italian (ryegrass, Italian; [11]): 0
- Plant response rating, Foxtail, Giant (giant foxtail; [9]): 90
- Plant response rating, Foxtail, Giant (giant foxtail; [10]): 80
- Foxtail, Giant plant response rating (0 to 100 scale, 0 is no effect, 100 is complete control) (giant foxtail; Postemergence, 500 g ai/ha): 90
- Plant response rating, Foxtail, Giant (giant foxtail; [11]): 90
- Plant response rating, Pigweed (pigweed; [9]): 50
- Plant response rating, Pigweed (pigweed; [10]): 0
- Pigweed plant response rating (0 to 100 scale, 0 is no effect, 100 is complete control) (pigweed; Postemergence, 500 g ai/ha): 0
- Plant response rating, Pigweed (pigweed; [11]): 70
- Plant response rating, Wheat (wheat; [12]): 50
- Wheat plant response rating (0 to 100 scale, 0 is no effect, 100 is complete control) (wheat; 500 g ai/ha): 60
- Plant response rating, Corn (corn; [12]): 50
- Plant response rating, Corn (corn; [8]): 70
- Plant response rating, Blackgrass (blackgrass; [12]): 60
- Plant response rating, Blackgrass (blackgrass; [8]): 70
- Plant response rating, Galium (galium; [12]): 60
- Galium plant response rating (0 to 100 scale, 0 is no effect, 100 is complete control) (galium; 500 g ai/ha): 70
- Plant response rating, Rice (rice): 35
- Plant response rating, Sedge, Umbrella (sedge, umbrella): 0
- Plant response rating, Ducksalad (ducksalad): 100
- Plant response rating, Barnyardgrass (barnyardgrass [2]): 70
